# Data published in patent US11760784B2, “Compositions comprising PEDF-derived short peptides and uses thereof” (BRIM Biotechnology, Inc., priority 2016, dated 2023).
# Assays:
# MCP-1 mRNA = assay: Ocular MCP-1 mRNA by quantitative real-time PCR in CEC dry eye mice; type: in vivo, C57BL6 mice; details: CEC 14 days, then topical PDSP for 5 days
# Method: Dry eye is associated with abnormalities in the pre-corneal tear film and subsequent inflammatory changes in the entire ocular surface including the adnexa, conjunctiva and cornea. (see, Hessen et al., “Dry eye: An Inflammatory Ocular Disease,” J. Ophthalmic Vis. Res., 2014, 9(2): 240-250). Therefore, the effects of PDSPs in corneal inflammatory responses were next examined. Briefly, C57BL6 mice were housed in CEC for 14 days (Day 0) and then treatment with PDSP or vehicle were performed for additional 5 days (Day 5). Then, mRNA levels for inflammatory factors were evaluated by quantitative real-time PCR.
# The total RNA was extracted from cells using TRIzol (Invitrogen) and treated with RNase free DNase I (Qiagen, Santa Clarita, CA) to remove genomic DNA and then purified with an RNA purification kit (Dynabeads; Invitrogen). […] Quantitative real-time PCR was performed in a GeneAmp 7700 sequence detection system (Applied Biosystems, Foster City, CA). […] All determinations were measured in triplicate. The cycle threshold (Ct) values corresponded to the PCR cycle number at which fluorescence emission in real time reaches a threshold above the base-line emission were analyzed using GeneAmp 7700 SDS software. The Ct value of the PCR product of interest and a control mRNA (GAPDH) were then used to calculate relative quantities of mRNA between samples.
# [1] = tested on: desiccating stress-induced dry eye; assay: Corneal fluorescein staining in desiccating stress-induced dry eye (CEC) mice; type: in vivo, C57BL/6 mice
# Method: In an animal model for dry eye diseases, mice were placed in a controlled environment chamber (CEC) to induce dry eyes as previously described (Barabino et al., 2005). Mice placed in the CEC were exposed to a relative humidity (RH)<25%, temperature of 20 to 22° C., with an airflow of 15 L/min, 12 hours per day. Non-Stressed mice were kept in a normal environment (RH >50%, no air flow, temperature of 21-23° C.) for the same duration. After 14 days, non-stressed mice were treated with vehicle, while the stressed mice were treated with either a test peptide (e.g., the 29mer PDSP) or vehicle solution (Vehicle group) for 5 days. Then, the cornea was examined with fluorescein staining.
# Seven to 8-week-old female C57BL/6 mice were used for these experiments. Experimental procedures were approved by the Mackay Memorial Hospital Review Board and conducted according to the ARVO Statement for the Use of Animals in Ophthalmic and Vision Research.
# (§1) Dry eye was induced by placing mice in a controlled environment chamber (CEC) as previously described (Barabino et al., 2005). Briefly, mice placed in the CEC were exposed to a relative humidity (RH)<25%, temperature of 20 to 22° C., and airflow of 15 L/min, 12 hours per day. Non-stressed (NS) mice without stress-induced dry eye were kept in a normal environment (RH >50%, no air flow, temperature of 21-23° C.) for the same duration. Corneal fluorescein staining and
# Animals were anesthetized by an intraperitoneal injection of a mixture of zoletil (6 mg/kg) and xylazine (3 mg/kg). Corneal epithelial injury was determined by staining with topical fluorescein (Fluor-I-Strip, Ayerst Laboratories, Philadelphia, Pa.). Corneal fluorescein staining was examined with a slit-lamp biomicroscope under cobalt blue light and photographed with a digital camera. Dye staining of the cornea was scored in a manner as follows: score 0 for no punctuate staining; score 1 when less than one third of the cornea was stained; score 2 when two thirds or less was stained; and score 3 when more than two thirds was stained (Horwath-Winter J 2013).
# To determine whether PDSP have therapeutic effects in a desiccating stress (DS)-induced ocular surface defects, mice were housed at controlled environment chamber (CEC) for 14 days to create ocular surface disruption. After 14 days in CEC, we used mice with fluorescence scores that are above 2 for the first experiments (FIG. 1A). Subsequently, dry eyes were treated topically with PDSP at 25-200 μM (3 times/day) or PDSP vehicle (1% CMC in BSS) for another 5 days while maintaining the same desiccating stress protocol.
# To investigate whether the PDSP can suppress DS-induced corneal epithelial disruption, we applied the 14-day desiccating stress protocol to mice, and treated these mice topically with PDSP 3 times a day.
# [2] = tested on: goblet cells in the conjunctiva; assay: PAS staining of conjunctival goblet cells in CEC dry eye mice; type: in vivo, C57BL/6 mice; details: CEC 14 days, then eye drop for 5 days; vehicle 37±1.1; non-stressed 58±3.1
# Method: Reduced mucin production could result from reduced goblet cells. […] Briefly, C57BL6 mice were housed in CEC for 14 days and then treated with PDSP or vehicle for additional 5 days. Non-stressed eyes are included as non-stressed controls (NS).
# as §1
# After animals were euthanized, eyes were surgically excised, fixed in 10% formalin, paraffin embedded, and cut into 5-μm sections. […] PAS-positive goblet cells in the conjunctiva were measured in five sections from each eye.
substance,measurement,setting,value
"PDSP: 29mer, residues 93-121 of human PEDF: SLGAEQRTESIIHRALYYDLISSPDIHGT (SEQ ID NO:4) (listed as Homo sapiens)",repression of ocular MCP-1 mRNA expression compared to vehicle-treated group,MCP-1 mRNA,1.7 fold
same,corneal fluorescein staining score (0 to 3),"[1]; preventive: 100 μM PDSP topically 3 times a day from beginning of 14 days in CEC, vehicle 1.7±0.3",0.7±0.2
same,corneal surface damage by fluorescein staining,"[1]; therapeutic: CEC 14 days to induce dry eye, then peptide on the eyes for 5 days",essentially gone
same,conjunctival goblet cell counts (PAS-positive cells),[2],46±3.8
